One block for each molecule: values may come before it.
Tested on: K12877-001-R-J1-PDC complex spheroid viability
Assay: Anticancer human tumor K12877-001-R-J1-PDC patient-derived lung adenocarcinoma cell line growth inhibition [RAS]
Details: for IC50: curve of first compound; for viability, T/C: stronger effect = lower value
Source text: RAS pathway inhibitors in Combinations in Complex Spheroids
A high-throughput screen of multi-cell type tumor spheroids was designed to identify active combinations of RAS pathway inhibitors and targeted small molecules. Complex spheroids include a stromal component modeled by human endothelial cells (HUVEC) and fibroblasts modeled by human mesenchymal stem cells (MSCs). The concentration ranges selected for each drug and investigational agent were based upon clinically achievable concentrations if the clinical Cmax of the agent was known.
Compounds. The drugs and investigational agents: abemaciclib (NSC768073), cobimetinib (NSC768068), divarasib (GDC6063, NSC841802), docetaxel (NSC628503), GDC-1971 (RLY-1971, NSC841576), gemcitabine (NSC613327), inavolisib (NSC800729), ipatasertib (NSC767898), KB-0742 (NSC834161), MRTX-1133 (NSC836407), osimertinib (NSC779217), RMC-4630 (NSC839698), RMC-6236 (NSC851965), RMC-6291 (NSC852671), Ro-3306 (NSC812927), sapanisertib (NSC764658), SN-38 (NSC673596), staurosporine (NSC755774), SY5609 (NSC837396), and tovorafenib (DAY101, NSC766906), were obtained from the National Cancer Institute (NCI) Developmental Therapeutics Program Chemical Repository. The FDA-approved anticancer drug set is available from the NCI Developmental Therapeutics Program. […] The stock solutions were prepared in dimethyl sulfoxide (DMSO, Sigma-Aldrich, St. Louis, MO, cat. D2650) at 800-fold the tested concentration and stored at -70 degrees C prior to their use. All drugs and investigational agents were tested over a range starting from a high concentration at or near the clinical Cmax and decreasing in half-log increments. If the clinical Cmax for an agent had not been determined, the highest concentration tested was 10 microM.
Cell Culture. All cells were maintained in an incubator at 37 degrees C and 5% CO2 with 95% humidity. The PDC lines were cultured according to standard operating procedures established by the NCI PDMR. All PDCs were thawed and cultured in Matrigel-coated flasks prepared with a working solution of 1X Ham's F-12 nutrient mix, without supplementation (Invitrogen, Waltham, MA, cat. 11765054), 100 U/mL penicillin-streptomycin (Invitrogen, cat. 15140122), and 2.5% Matrigel (Corning Inc., Corning, NY, cat. 354248) for the first three passages. The 362531-283-R-J2-PDC and 782815-120-R-J1-PDC lines were cultured in 6C/Colon 1B media, which includes advanced DMEM/F-12 (Thermo Fisher Scientific, cat. 12634028), 10 mM HEPES (Thermo Fisher Scientific, cat. 15630080), 1X GlutaMAX supplement (Thermo Fisher Scientific, cat. 35050061), 0.1 mg/mL primocin (InvivoGen, San Diego, CA, cat. ant-pm-2), 10% defined fetal bovine serum, heat inactivated (HyClone Laboratories Inc., Logan, UT, cat. SH30070.03HI), 50% L-WRN conditioned media (ATCC, cat. CRL-3276), 1.25 mM N-Acetyl-L-cysteine (Sigma-Aldrich, cat. A9165), 10 mM nicotinamide (Sigma-Aldrich, cat. N0636), 1X B-27 supplement (Thermo Fisher Scientific, cat. 17504044), 1X N-2 supplement (Thermo Fisher Scientific, cat. 17502048), 50 ng/mL human EGF (Thermo Fisher Scientific, cat. PHG0311), and 10 microM Y-27632 dihydrochloride (Tocris Bioscience, cat. 1254). The K12877-001-R-J1-PDC line was cultured in 6I media, which includes all 6C/Colon 1B media plus 10 ng/mL human FGF-10 (PeproTech, cat. 100-26), 1 ng/mL human FGF-2 (PeproTech, cat. 100-18B), 1 µM prostaglandin E2 (Tocris Bioscience, cat. 2296), […] hydrocortisone (Sigma-Aldrich, cat. H4001), and […] bovine insulin (Sigma-Aldrich, cat. I6634). The K86415-001-R-J1-PDC line was cultured in 6D media, which includes all 6C/Colon 1B media components minus the L-WRN conditioned media. The 485176-168-R4-J1-PDC was cultured in PANC media, which includes all 6C/Colon 1B media plus 100 ng/mL human FGF-10 (PeproTech, cat. 100-26), 500 nM SB-431542 (Selleckchem, cat. S1067), and 10 nM gastrin (Tocris Bioscience, cat. 3006). […]

[1] = second compound 0.0316 µM, first compound 0.0316 µM
[2] = second compound 0.0316 µM, first compound 0.1 µM
[3] = second compound 0.0316 µM, first compound 0.316 µM
[4] = second compound 0.0316 µM, first compound 1 µM
[5] = second compound 0.0316 µM, first compound 3.16 µM
[6] = second compound 0.0316 µM, first compound 10 µM
[7] = second compound 0.1 µM, first compound 0.0316 µM
[8] = second compound 0.1 µM, first compound 0.1 µM
[9] = second compound 0.1 µM, first compound 0.316 µM
[10] = second compound 0.1 µM, first compound 1 µM
[11] = second compound 0.1 µM, first compound 3.16 µM
[12] = second compound 0.1 µM, first compound 10 µM
[13] = second compound 0.316 µM, first compound 0.0316 µM
[14] = second compound 0.316 µM, first compound 0.1 µM
[15] = second compound 0.316 µM, first compound 0.316 µM
[16] = second compound 0.316 µM, first compound 1 µM
[17] = second compound 0.316 µM, first compound 3.16 µM
[18] = second compound 0.316 µM, first compound 10 µM
[19] = second compound 1 µM, first compound 0.0316 µM
[20] = second compound 1 µM, first compound 0.1 µM
[21] = second compound 1 µM, first compound 0.316 µM
[22] = second compound 1 µM, first compound 1 µM
[23] = second compound 1 µM, first compound 3.16 µM
[24] = second compound 1 µM, first compound 10 µM
[25] = second compound 3.16 µM, first compound 0.0316 µM
[26] = second compound 3.16 µM, first compound 0.1 µM
[27] = second compound 3.16 µM, first compound 0.316 µM
[28] = second compound 3.16 µM, first compound 1 µM
[29] = second compound 3.16 µM, first compound 3.16 µM
[30] = second compound 3.16 µM, first compound 10 µM
[31] = second compound 10 µM, first compound 0.0316 µM
[32] = second compound 10 µM, first compound 0.1 µM
[33] = second compound 10 µM, first compound 0.316 µM
[34] = second compound 10 µM, first compound 1 µM
[35] = second compound 10 µM, first compound 3.16 µM
[36] = second compound 10 µM, first compound 10 µM
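Also: spheroids exposed to agents for one week before readout.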

IC50 (second compound 0.0316 µM): > 10 µM
IC50 (second compound 0.1 µM): > 10 µM
IC50 (second compound 0.316 µM): > 10 µM
IC50 (second compound 1 µM): > 10 µM
IC50 (second compound 3.16 µM): > 10 µM
IC50 (second compound 10 µM): > 10 µM
SMILES: Cc1nc(N2CCC3(CC2)COC(C)C3N)c(CO)nc1Sc1ccnc(N)c1Cl (stereo unspecified) + C#Cc1c(F)ccc2cc(O)cc(-c3ncc4c(N5CC6CCC(C5)N6)nc(OCC56CCCN5CC(F)C6)nc4c3F)c12
viability, T/C [1]: 94.3%
viability, T/C [2]: 97%
viability, T/C [3]: 99%
viability, T/C [4]: 95.1%
viability, T/C [5]: 103%
viability, T/C [6]: 77.5%
viability, T/C [7]: 109%
viability, T/C [8]: 110%
viability, T/C [9]: 92%
viability, T/C [10]: 87.7%
viability, T/C [11]: 93.5%
viability, T/C [12]: 84.1%
viability, T/C [13]: 107%
viability, T/C [14]: 98.8%
viability, T/C [15]: 91.2%
viability, T/C [16]: 92.9%
viability, T/C [17]: 78.5%
viability, T/C [18]: 65.7%
viability, T/C [19]: 101%
viability, T/C [20]: 92.5%
viability, T/C [21]: 93.1%
viability, T/C [22]: 95.7%
viability, T/C [23]: 82.9%
viability, T/C [24]: 69.5%
viability, T/C [25]: 100%
viability, T/C [26]: 94%
viability, T/C [27]: 92.4%
viability, T/C [28]: 79.7%
viability, T/C [29]: 79.7%
viability, T/C [30]: 69.7%
viability, T/C [31]: 93.6%
viability, T/C [32]: 86.1%
viability, T/C [33]: 83.9%
viability, T/C [34]: 83.4%
viability, T/C [35]: 86.9%
viability, T/C [36]: 84.8%

IC50 (second compound 0.0316 µM): > 10 µM
IC50 (second compound 0.1 µM): > 10 µM
IC50 (second compound 0.316 µM): > 10 µM
IC50 (second compound 1 µM): > 10 µM
IC50 (second compound 3.16 µM): > 10 µM
IC50 (second compound 10 µM): > 10 µM
SMILES: NC1c2ccccc2OC12CCN(c1cnc3c(N4CCCc5ncccc54)n[nH]c3n1)CC2 (stereo unspecified) + C#Cc1c(F)ccc2cc(O)cc(-c3ncc4c(N5CC6CCC(C5)N6)nc(OCC56CCCN5CC(F)C6)nc4c3F)c12
viability, T/C [1]: 104%
viability, T/C [2]: 92.3%
viability, T/C [3]: 86.8%
viability, T/C [4]: 93.1%
viability, T/C [5]: 85.3%
viability, T/C [6]: 50.4%
viability, T/C [7]: 106%
viability, T/C [8]: 91.1%
viability, T/C [9]: 90%
viability, T/C [10]: 78.9%
viability, T/C [11]: 84.2%
viability, T/C [12]: 58.9%
viability, T/C [13]: 98.4%
viability, T/C [14]: 93.2%
viability, T/C [15]: 88.5%
viability, T/C [16]: 86.8%
viability, T/C [17]: 74.2%
viability, T/C [18]: 55.8%
viability, T/C [19]: 105%
viability, T/C [20]: 97.1%
viability, T/C [21]: 86.8%
viability, T/C [22]: 87.6%
viability, T/C [23]: 71.2%
viability, T/C [24]: 54.8%
viability, T/C [25]: 99.7%
viability, T/C [26]: 84.8%
viability, T/C [27]: 104%
viability, T/C [28]: 87.8%
viability, T/C [29]: 72.7%
viability, T/C [30]: 55.1%
viability, T/C [31]: 90.4%
viability, T/C [32]: 97.6%
viability, T/C [33]: 102%
viability, T/C [34]: 91.8%
viability, T/C [35]: 64.9%
viability, T/C [36]: 63.8%

IC50 (second compound 0.0316 µM): 0.0187 µM
IC50 (second compound 0.1 µM): 0.017 µM
IC50 (second compound 0.316 µM): 0.0178 µM
IC50 (second compound 1 µM): 0.0176 µM
IC50 (second compound 3.16 µM): 0.0174 µM
IC50 (second compound 10 µM): 0.0162 µM
SMILES: Nc1ccn(C2OC(CO)C(O)C2(F)F)c(=O)n1 (stereo unspecified) + C#Cc1c(F)ccc2cc(O)cc(-c3ncc4c(N5CC6CCC(C5)N6)nc(OCC56CCCN5CC(F)C6)nc4c3F)c12
viability, T/C (second compound 0.0316 µM, first compound 0.00316 µM): 98.9%
viability, T/C (second compound 0.0316 µM, first compound 0.01 µM): 102%
viability, T/C [1]: 7.92%
viability, T/C [2]: 5.24%
viability, T/C [3]: 5.93%
viability, T/C [4]: 6.36%
viability, T/C (second compound 0.1 µM, first compound 0.00316 µM): 119%
viability, T/C (second compound 0.1 µM, first compound 0.01 µM): 85.9%
viability, T/C [7]: 7.72%
viability, T/C [8]: 5.87%
viability, T/C [9]: 5.86%
viability, T/C [10]: 5.63%
viability, T/C (second compound 0.316 µM, first compound 0.00316 µM): 102%
viability, T/C (second compound 0.316 µM, first compound 0.01 µM): 92.7%
viability, T/C [13]: 7.04%
viability, T/C [14]: 5.27%
viability, T/C [15]: 5.95%
viability, T/C [16]: 6.35%
viability, T/C (second compound 1 µM, first compound 0.00316 µM): 102%
viability, T/C (second compound 1 µM, first compound 0.01 µM): 88.8%
viability, T/C [19]: 9.52%
viability, T/C [20]: 5.65%
viability, T/C [21]: 6.02%
viability, T/C [22]: 6.24%
viability, T/C (second compound 3.16 µM, first compound 0.00316 µM): 106%
viability, T/C (second compound 3.16 µM, first compound 0.01 µM): 89%
viability, T/C [25]: 8.02%
viability, T/C [26]: 4.94%
viability, T/C [27]: 5.19%
viability, T/C [28]: 5.82%
viability, T/C (second compound 10 µM, first compound 0.00316 µM): 101%
viability, T/C (second compound 10 µM, first compound 0.01 µM): 79.4%
viability, T/C [31]: 8.95%
viability, T/C [32]: 5.43%
viability, T/C [33]: 6.72%
viability, T/C [34]: 5.24%

Source: PubChem BioAssay AID2060894 (Molecular Pharmacology Branch, DTP, NCI, 2025)
